Patent US10125134B2 (Mirati Therapeutics, Inc., priority 2016, dated 2018)
Read-outs that look alike come from different tables or passages of the source.

Key:
[1] = tested on: NCI-H358 cells (express KRas G12C), Phospho-ERK; assay: Cellular inhibition of KRas G12C: Phospho-ERK in NCI-H358 cells; assay type: cell-based
Protocol: The cellular inhibition of KRAs G12C by exemplary compounds of the present invention was determined by measuring the amount of a downstream marker of KRas activity, phosphorylated ERK (“Phospho-ERK”).
Cells were plated in poly-D-Lysine coated 96-well plates at a concentration of 50,000 cells/well and allowed to attach for 8-12 hours. Diluted compounds were then added at a final concentration of 0.5% DMSO. After 3 hours, the medium was removed, 150 μL of 4% formaldehyde was added and the plates were incubated for 20 minutes. The plates were washed with PBS, and permeabilized using 150 μL of ice cold 100% methanol for 10 minutes. Non-specific antibody binding to the plates was blocked using 100 μL Licor Blocking Buffer (Li-Cor Biotechnology, Lincoln Nebr.) for 1 hour at room temperature. Positive control samples and samples lacking cells were parallel processed with test samples as standards.
The amount Phospho-ERK was determined using an antibody specific for the phosphorylated form of ERK and compared to the amount of GAPDH. […] The plates were incubated for 2 hours at room temperature. The plates were washed with PBS+0.05% Tween 20.
Secondary antibodies used to visualize primary antibodies were added as follows: Anti-rabbit-680 diluted 1:1000 and Anti-mouse-800 diluted 1:1000 in Licor Block+0.05% Tween 20 and incubated for 1 hour at room temperature. The plates were washed with PBS+0.05% Tween 20. A 100 μL aliquot of PBS was added to each well and the plates were read on a LICOR AERIUS plate reader.
The pERK(Thr202/Tyr204) signal was normalized with the GAPDH signal and percent of DMSO control values were calculated. IC50 values were generated using a 4 parameter fit of the dose response curve. Key: “A”≥0.0001−≤1 μM; and “B”>1 μM.

KRas G12C = KRas G12C (Homo sapiens, UniProt P01116, C118S/C51S/C80L/G12C); assay: KRas G12C Modification Assay (LCMS detection of covalent adduct); assay type: binding; settings: normalized percent of control; tested at 5 μM concentration for 3 hours
Protocol: A 10 μL aliquot of each protein solution was then transferred to a 384 well microtiter plate. Initial compound stocks were generated at fifty times their desired final assay concentration in DMSO.
Exemplary compounds of Formula (I) were diluted 25-fold into K-Ras Assay Buffer to a final of two times their final concentration. A 10 μL aliquot of each diluted compound solution was then added to each of the protein solutions in the microtiter plate to initiate reaction. […] At each time point, the reactions were quenched with 20 μL of a 25 mM acetic acid solution. […] Once all reactions were quenched, the plates were heat sealed and the samples were injected into a LC/MS system for data acquisition.
Samples were injected in their liquid phase onto a C-3 reverse phase column to remove assay buffer and prepare the samples for mass spectrometer. The proteins were eluted from the column using an acetonitrile gradient and fed directly into the mass analyzer. Initial raw data analysis took place in Agilent MassHunter software immediately post data acquisition.
Raw data analysis of the intact protein was exclusively a deconvolution of the multiple charge states of each protein in solution using a maximum entropy deconvolution provided in Mass Hunter. To minimize complexity, only the data over limited mass ranges were considered for analysis, with a minimum of one Dalton mass step intervals. The heights of all masses identified during raw data analysis were exported to be further analyzed in Spotfire® data analysis software.
Final data analysis was a multistep process in the Spotfire® data analysis software package. Briefly, each protein mass was calculated as a percent of the total signal of that sample, that percentage was then normalized to the percentage of signal of the protein in the absence of reactive compounds. Those normalized signals were reported as normalized percent of control (POC). […] Key: “A”≤25% POC; “B”>25% POC−≤50% POC; “C”>50% POC and ND=not determined.

[2] = Homo sapiens, NCI-H358, 3 h, pERK(Thr202/Tyr204) normalized with GAPDH, NCI-H358 cells, 3 hours, read-out: IC50
[3] = Homo sapiens, pERK(Thr202/Tyr204) normalized with GAPDH, NCI-H358 cells, 3 hours, read-out: IC50
[4] = pERK(Thr202/Tyr204) normalized with GAPDH, NCI-H358 cells, 3 hours, read-out: IC50

Compound | POC (KRas G12C) | IC50 ([1]; Homo sapiens, NCI-H358, 3 h) [nM] | other results
C=CC(=O)N1CCN(c2nc(OC[C@@H]3CCCN3C)nc3c2CCN(c2cccc(F)c2Cl)C3)C[C@@H]1CC#N [Example 405, 2-((S)-1-acryloyl-4-(7-(2-chloro-3-fluorophenyl)-2-(((S)-1-methylpyrrolidin-2-yl)methoxy)-5,6,7,8-tetrahydropyrido[3,4-d]pyrimidin-4-yl)piperazin-2-yl)acetonitrile] | C (“C”>50% POC) |  | IC50 [1, 2]: 0.1 to 1000 nM
CC#CC(=O)N1CCN(c2nc(OC[C@@H]3CCCN3C)nc3c2CCN(c2cccc4ccccc24)C3)CC1CC#N (stereo partly drawn) [Example 242, 2-(1-(but-2-ynoyl)-4-(2-(((S)-1-methylpyrrolidin-2-yl)methoxy)-7-(naphthalen-1-yl)-5,6,7,8-tetrahydropyrido[3,4-d]pyrimidin-4-yl)piperazin-2-yl)acetonitrile] |  |  | IC50 [1, 3]: 0.1 to 1000 nM
C=CC(=O)N1CCN(c2ncnc3c2CCN(C(CO)c2ccccc2)C3)CC1 (centres unmarked) [Example 71, 1-(4-(7-(2-hydroxy-1-phenylethyl)-5,6,7,8-tetrahydropyrido[3,4-d]pyrimidin-4-yl)piperazin-1-yl)prop-2-en-1-one] | A (“A”≤25% POC) |  | IC50 [1, 3]: > 1000 nM
C=CC(=O)N1CCN(c2nc(OC[C@@H]3CCCN3C)nc3c2CCN(c2cccc4ccccc24)C3)C(C)(C)C1 [Example 354, 1-[3,3-dimethyl-4-[2-[[(2S)-1-methylpyrrolidin-2-yl]methoxy]-7-(1-naphthyl)-6,8-dihydro-5H-pyrido[3,4-d]pyrimidin-4-yl]piperazin-1-yl]prop-2-en-1-one] | C (“C”>50% POC) |  | IC50 [1, 2]: > 1000 nM
C=CC(=O)N1CCN(c2nc(OC[C@H]3CCCN3C)nc3c2CCN(c2cccc(F)c2C(F)(F)F)C3)C[C@@H]1CC#N [Example 382, 2-((S)-1-acryloyl-4-(7-(3-fluoro-2-(trifluoromethyl)phenyl)-2-(((R)-1-methylpyrrolidin-2-yl)methoxy)-5,6,7,8-tetrahydropyrido[3,4-d]pyrimidin-4-yl)piperazin-2-yl)acetonitrile] |  |  | IC50 [1, 4]: 0.1 to 1000 nM
C=CC(=O)N1CCN(c2nc(OC[C@@H]3CCCN3C)nc3c2CCN(c2cccc4cccc(C#N)c24)C3)C[C@@H]1CC#N [Example 464, 8-(4-((S)-4-acryloyl-3-(cyanomethyl)piperazin-1-yl)-2-(((S)-1-methylpyrrolidin-2-yl)methoxy)-5,8-dihydropyrido[3,4-d]pyrimidin-7(6H)-yl)-1-naphthonitrile] |  |  | IC50 [1, 3]: 0.1 to 1000 nM
C=CC(=O)N1CCN(c2nc(OC[C@@H]3CCCN3C)nc3c2CCN(c2cccc4cccc(OC)c24)C3)C[C@@H]1CC#N [Example 463, 2-((S)-1-acryloyl-4-(7-(8-methoxynaphthalen-1-yl)-2-(((S)-1-methylpyrrolidin-2-yl)methoxy)-5,6,7,8-tetrahydropyrido[3,4-d]pyrimidin-4-yl)piperazin-2-yl)acetonitrile] |  |  | IC50 [1, 3]: > 1000 nM
C=CC(=O)N1CCN(c2nc(OC[C@H]3CCCN3C)nc3c2CCN(c2cc(O)cc4ccccc24)C3)CC1 [Example 187, (R)-1-(4-(7-(3-hydroxynaphthalen-1-yl)-2-((1-methylpyrrolidin-2-yl)methoxy)-5,6,7,8-tetrahydropyrido[3,4-d]pyrimidin-4-yl)piperazin-1-yl)prop-2-en-1-one] |  | 0.1 to 1000 | 
C=CC(=O)N1CCN(c2nc(OC[C@@H]3CCCN3C)nc3c2CCN(c2cccc4ccccc24)C3)CC1 [Example 200, (S)-1-(4-(2-((1-methylpyrrolidin-2-yl)methoxy)-7-(naphthalen-1-yl)-5,6,7,8-tetrahydropyrido[3,4-d]pyrimidin-4-yl)piperazin-1-yl)prop-2-en-1-one] |  | > 1000 | 
C=CC(=O)N1CCN(c2nc(OC[C@@H]3CCCN3C)nc3c2CCN(c2cccc4cccc(Cl)c24)C3)CC1CC#N (stereo partly drawn) [Example 310, 2-(1-acryloyl-4-(7-(8-chloronaphthalen-1-yl)-2-(((S)-1-methylpyrrolidin-2-yl)methoxy)-5,6,7,8-tetrahydropyrido[3,4-d]pyrimidin-4-yl)piperazin-2-yl)acetonitrile] |  | 0.1 to 1000 | 
C=CC(=O)N1CCN(c2nc(OC[C@@H]3CCCN3C)nc3c2CCN(c2cc(O)cc4ccccc24)C3)CC1 [Example 127, (S)-1-(4-(7-(3-hydroxynaphthalen-1-yl)-2-((1-methylpyrrolidin-2-yl)methoxy)-5,6,7,8-tetrahydropyrido[3,4-d]pyrimidin-4-yl)piperazin-1-yl)prop-2-en-1-one] |  | 0.1 to 1000 | 
C=CC(=O)N1CCN(c2nc(OC[C@@H]3CCCN3C)nc3c2CCN(c2cccc(C)c2C(F)(F)F)C3)C[C@@H]1CC#N [Example 392, 2-((S)-1-acryloyl-4-(7-(3-methyl-2-(trifluoromethyl)phenyl)-2-(((S)-1-methylpyrrolidin-2-yl)methoxy)-5,6,7,8-tetrahydropyrido[3,4-d]pyrimidin-4-yl)piperazin-2-yl)acetonitrile] |  |  | IC50 [1, 4]: 0.1 to 1000 nM
C=CC(=O)N1CCN(c2nc(OC[C@]3(C)CCCN3C)nc3c2CCN(c2cccc4ccccc24)C3)CC1CC#N (stereo partly drawn) [Example 251, 2-(1-acryloyl-4-(2-(((S)-1,2-dimethylpyrrolidin-2-yl)methoxy)-7-(naphthalen-1-yl)-5,6,7,8-tetrahydropyrido[3,4-d]pyrimidin-4-yl)piperazin-2-yl)acetonitrile] |  | 0.1 to 1000 | 
C=CC(=O)N1CCN(c2nc(OC[C@@H]3CCCN3C)nc3c2CCN(c2cccc4cccc(Cl)c24)C3)C[C@@H]1CC#N [Example 331, 2-[(2S)-4-[7-(8-chloro-1-naphthyl)-2-[[(2S)-1-methylpyrrolidin-2-yl]methoxy]-6,8-dihydro-5H-pyrido[3,4-d]pyrimidin-4-yl]-1-prop-2-enoyl-piperazin-2-yl]acetonitrile] |  | 0.1 to 1000 | 

Further lines, with some results ahead:

POC (KRas G12C) | Compound | IC50 ([1]; Homo sapiens, NCI-H358, 3 h) [nM] | other results
C (“C”>50% POC) | C=CC(=O)N1CCN(c2nc(OC[C@@H]3CN(C)CCN3)nc3c2CCN(c2cccc4ccccc24)C3)CC1CC#N (stereo partly drawn) [Example 223, 2-(1-acryloyl-4-(2-(((S)-4-methylpiperazin-2-yl)methoxy)-7-(naphthalen-1-yl)-5,6,7,8-tetrahydropyrido[3,4-d]pyrimidin-4-yl)piperazin-2-yl)acetonitrile] |  | IC50 [1, 2]: 0.1 to 1000 nM
C (“C”>50% POC) | C=CC(=O)N1CCN(c2nc(OC[C@@H]3CCCN3C)nc3c2CCN(c2cccc4ccc(F)cc24)C3)C[C@@H]1CC#N [Example 333, 2-[(2S)-4-[7-(7-fluoro-1-naphthyl)-2-[[(2S)-1-methylpyrrolidin-2-yl]methoxy]-6,8-dihydro-5H-pyrido[3,4-d]pyrimidin-4-yl]-1-prop-2-enoyl-piperazin-2-yl]acetonitrile] |  | IC50 [1, 2]: 0.1 to 1000 nM
C (“C”>50% POC) | C=CC(=O)N1CCN(c2nc(OC[C@H]3CN(C)[C@H](C)CO3)nc3c2CCN(c2cccc4ccccc24)C3)C[C@@H]1CC#N [Example 449, 2-((S)-1-Acryloyl-4-(2-(((2R,5R)-4,5-dimethylmorpholin-2-yl)methoxy)-7-(naphthalen-1-yl)-5,6,7,8-tetrahydropyrido[3,4-d]pyrimidin-4-yl)piperazin-2-yl)acetonitrile] |  | 
C (“C”>50% POC) | C=CC(=O)N1CCN(c2nc(OC[C@H]3CN(C)CCO3)nc3c2CCN(c2cccc4ccccc24)C3)CC1CC#N (stereo partly drawn) [Example 441, 2-(1-Acryloyl-4-(2-(((R)-4-methylmorpholin-2-yl)methoxy)-7-(naphthalen-1-yl)-5,6,7,8-tetrahydropyrido[3,4-d]pyrimidin-4-yl)piperazin-2-yl)acetonitrile] |  | 
